The values below come from article PMC3090445 (Journal of the American Chemical Society, 2008).

SMILES strings stand for the structures. pKi: −log10 of the molar value.

The pKi is the negative decadic logarithm of the Ki, by convention in mol/L. Low values mean a large Ki, high ones a small Ki.

One test has as its target HDAC1 (Homo sapiens, UniProt Q13547). Type of test: biochemical.
Test [1] relates to transformed and non-transformed human- and murine-derived cell lines. Conditions: transformed vs non-transformed human- and murine-derived cell lines; cited from earlier work.

HDAC1, sequence (Q13547 whole entry): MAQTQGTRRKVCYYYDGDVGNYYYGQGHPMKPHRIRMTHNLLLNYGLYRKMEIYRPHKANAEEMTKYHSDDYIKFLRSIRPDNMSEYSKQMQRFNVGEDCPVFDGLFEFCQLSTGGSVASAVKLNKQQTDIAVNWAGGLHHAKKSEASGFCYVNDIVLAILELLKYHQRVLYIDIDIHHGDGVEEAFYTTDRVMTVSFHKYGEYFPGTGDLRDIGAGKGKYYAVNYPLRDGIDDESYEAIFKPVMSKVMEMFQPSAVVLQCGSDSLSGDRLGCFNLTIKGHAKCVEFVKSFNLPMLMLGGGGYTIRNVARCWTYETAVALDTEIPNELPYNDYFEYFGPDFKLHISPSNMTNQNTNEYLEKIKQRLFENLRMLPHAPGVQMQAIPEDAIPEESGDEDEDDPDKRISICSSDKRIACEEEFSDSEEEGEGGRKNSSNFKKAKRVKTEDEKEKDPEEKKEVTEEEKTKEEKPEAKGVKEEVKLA

The molecule `C/C=C1\NC(=O)[C@H]2CSSCC/C=C/[C@H](CC(=O)N[C@H](C(C)C)C(=O)N2)OC(=O)[C@H](C(C)C)NC1=O` [FK228] gave a pKi on HDAC1 of 9.92.
As to `CCCCCCCC(=O)SCC/C=C/[C@@H]1CC(=O)NCc2nc(cs2)C2=N[C@@](C)(CS2)C(=O)N[C@@H](C(C)C)C(=O)O1` [largazole (1), largazole], the differential growth inhibition entry in test [1] is reported as “two- to ten-fold”.
